Experimental data published in ChEMBL document CHEMBL1155422, “SAR of tertiary carbinamine derived BACE1 inhibitors: role of aspartate ligand amine pKa in enzyme inhibition” (Bioorg Med Chem Lett, 2010).

Legend:
Beta-secretase 1 [1] = molecular target: T1, Beta-secretase 1 (Homo sapiens, UniProt P56817); assay: Inhibition of BACE1
Beta-secretase 1 [2] = molecular target: T1, Beta-secretase 1; assay: Inhibition of human BACE1 expressed in mouse fibroblast cells assessed as inhibition of secreted APPbeta-NF production at pH 7.2; type: cell-based

T1 sequence (P56817 whole entry): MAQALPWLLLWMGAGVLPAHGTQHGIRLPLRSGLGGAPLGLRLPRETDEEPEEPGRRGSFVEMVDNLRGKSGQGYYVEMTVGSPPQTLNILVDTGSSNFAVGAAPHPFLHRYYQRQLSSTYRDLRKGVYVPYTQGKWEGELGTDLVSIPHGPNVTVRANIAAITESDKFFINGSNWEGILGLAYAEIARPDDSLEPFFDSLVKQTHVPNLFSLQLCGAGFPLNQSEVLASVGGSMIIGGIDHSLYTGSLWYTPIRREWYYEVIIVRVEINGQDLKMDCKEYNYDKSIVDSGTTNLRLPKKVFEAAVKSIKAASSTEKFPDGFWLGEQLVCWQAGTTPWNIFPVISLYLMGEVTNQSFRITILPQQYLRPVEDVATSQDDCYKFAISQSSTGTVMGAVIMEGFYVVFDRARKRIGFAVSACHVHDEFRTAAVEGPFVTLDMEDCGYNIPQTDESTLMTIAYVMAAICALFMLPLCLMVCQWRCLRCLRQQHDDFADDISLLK

Compound	IC50 (Beta-secretase 1 [1])	IC50 (Beta-secretase 1 [2])
C[C@@H](NC(=O)c1cc(COC(=O)C(C)(N)Cc2ccccc2)cc(N(C)S(C)(=O)=O)c1)c1ccc(F)cc1 (some centres undefined)	19 nM	163 nM
C[C@@H](NC(=O)c1cc(CCC[C@](N)(CO)Cc2ccccc2)cc(N(C)S(C)(=O)=O)c1)c1ccc(F)cc1	22400 nM	
C[C@@H](NC(=O)c1cc(OCCC(N)(CO)Cc2ccccc2)cc(N(C)S(C)(=O)=O)c1)c1ccc(F)cc1 (some centres undefined)	70500 nM	
C[C@@H](NC(=O)c1cc(N(C)S(C)(=O)=O)cc(S(=O)(=O)CCC(N)(CO)Cc2ccccc2)c1)c1ccc(F)cc1 (some centres undefined)	> 100000 nM	
C[C@@H](NC(=O)c1cc(CNC(=O)C(N)(CO)Cc2ccccc2)cc(N(C)S(C)(=O)=O)c1)c1ccc(F)cc1 (some centres undefined)	18100 nM	
CNC(CO)(COC(=O)c1cc(C(=O)N[C@H](C)c2ccc(F)cc2)cc(N(C)S(C)(=O)=O)c1)Cc1ccccc1 (some centres undefined)	> 100000 nM	
C[C@@H](NC(=O)c1cc(C(=O)OCC(O)(CN)Cc2ccccc2)cc(N(C)S(C)(=O)=O)c1)c1ccc(F)cc1 (some centres undefined)	22200 nM	
C[C@@H](NC(=O)c1cc(C(=O)NCC(O)(CO)Cc2ccccc2)cc(N(C)S(C)(=O)=O)c1)c1ccc(F)cc1 (some centres undefined)	24900 nM	
C[C@@H](NC(=O)c1cc(NCCC(N)(CO)Cc2ccccc2)cc(N(C)S(C)(=O)=O)c1)c1ccc(F)cc1 (some centres undefined)	> 100000 nM	
C[C@@H](NC(=O)c1cc(N(C)S(C)(=O)=O)cc(-n2cc([C@](C)(N)Cc3ccccc3)nn2)c1)c1ccc(F)cc1	16300 nM	
C[C@@H](NC(=O)c1cc(-c2n[nH]c([C@](C)(N)Cc3ccccc3)n2)cc(N(C)S(C)(=O)=O)c1)c1ccc(F)cc1	822 nM	4740 nM
C[C@@H](NC(=O)c1cc(SCCC(N)(CO)Cc2ccccc2)cc(N(C)S(C)(=O)=O)c1)c1ccc(F)cc1 (some centres undefined)	> 100000 nM	
C[C@@H](NC(=O)c1cc(-c2nnc([C@](C)(N)Cc3ccccc3)s2)cc(N(C)S(C)(=O)=O)c1)c1ccc(F)cc1	29900 nM	
C[C@@H](NC(=O)c1cc(-c2ncc([C@](C)(N)Cc3ccccc3)o2)cc(N(C)S(C)(=O)=O)c1)c1ccc(F)cc1	7 nM	5 nM
COCC(N)(COCc1cc(C(=O)N[C@H](C)c2ccc(F)cc2)cc(N(C)S(C)(=O)=O)c1)Cc1ccccc1 (mixture of isomers)	> 100000 nM	
CCC(N)(COCc1cc(C(=O)N[C@H](C)c2ccc(F)cc2)cc(N(C)S(C)(=O)=O)c1)Cc1ccccc1 (mixture of isomers)	22000 nM	

Further compounds by falling IC50 (Beta-secretase 1 [1]), results first:

IC50 (Beta-secretase 1 [1])	IC50 (Beta-secretase 1 [2])	Compound
10800 nM		C[C@@H](NC(=O)c1cc(C(=O)NCC(N)(CO)Cc2ccccc2)cc(N(C)S(C)(=O)=O)c1)c1ccc(F)cc1 (some centres undefined)
10100 nM	3470 nM	C[C@@H](NC(=O)c1cc(CNC[C@](N)(CO)Cc2ccccc2)cc(N(C)S(C)(=O)=O)c1)c1ccc(F)cc1
10100 nM	1710 nM	C[C@@H](NC(=O)c1cc(COC[C@H](N)Cc2ccccc2)cc(N(C)S(C)(=O)=O)c1)c1ccc(F)cc1
5720 nM		C[C@@H](NC(=O)c1cc(CNC(=O)C(C)(N)Cc2ccccc2)cc(N(C)S(C)(=O)=O)c1)c1ccc(F)cc1 (some centres undefined)
2060 nM		C[C@@H](NC(=O)c1cc(-c2noc([C@](C)(N)Cc3ccccc3)n2)cc(N(C)S(C)(=O)=O)c1)c1ccc(F)cc1
1830 nM		C[C@@H](NC(=O)c1cc(-c2nc([C@](C)(N)Cc3ccccc3)no2)cc(N(C)S(C)(=O)=O)c1)c1ccc(F)cc1
1370 nM	580 nM	C[C@@H](NC(=O)c1cc(COC[C@](N)(CO)Cc2ccccc2)cc(N(C)S(C)(=O)=O)c1)c1ccc(F)cc1
997 nM	432 nM	C[C@@H](NC(=O)c1cc(COCC(N)(CF)Cc2ccccc2)cc(N(C)S(C)(=O)=O)c1)c1ccc(F)cc1 (mixture of isomers)
925 nM	> 20000 nM	C[C@@H](NC(=O)c1cc(COCC(N)(Cc2ccccc2)C(F)F)cc(N(C)S(C)(=O)=O)c1)c1ccc(F)cc1 (mixture of isomers)
344 nM	138 nM	C[C@@H](NC(=O)c1cc(COC[C@](C)(N)Cc2ccccc2)cc(N(C)S(C)(=O)=O)c1)c1ccc(F)cc1
310 nM	684 nM	C[C@@H](NC(=O)c1cc(COC(=O)C(N)(CO)Cc2ccccc2)cc(N(C)S(C)(=O)=O)c1)c1ccc(F)cc1 (some centres undefined)
20 nM	4 nM	C[C@@H](NC(=O)c1cc(-c2ccc(C(C)(N)Cc3ccccc3)o2)cc(N(C)S(C)(=O)=O)c1)c1ccc(F)cc1 (mixture of isomers)
